These results are taken from US20110268757A1, “USE OF PHENOL-SOLUBLE MODULINS FOR VACCINE DEVELOPMENT” (INSTITUT PASTEUR, priority 2008, published 2011).

For assay [1], the system named is bone marrow derived dendritic cells. In words: Binding of CFSE labeled peptides to bone marrow derived dendritic cells (flow cytometry). Type of assay: cell-based, mouse. As to conditions: 20 μM peptide, fixed cells, 30 minutes at 4° C. The method, then:
Dendritic cells were grown from bone marrow cells. After lysing the erythrocytes with ACK lysis buffer, the cells were washed and lymphocytes and granulocytes were removed by means of incubation with a mixture of antibodies against CD4 (GK1; ATCC, Manassas, Va.), CD8 (53.6.72; ATCC), Ly-6G/Gr1 (BD-Pharmingen; San Diego Calif.) and CD45R/B220 (BD-Pharmingen), followed by rabbit supplement. The remaining cells grew in 12 culture plates in complete medium with 10^6 cells/ml supplemented with 20 ng/ml of mGM-CSF and 20 ng/ml of mIL-4 (both from Peprotech; London, GB). Every 2 days the medium was substituted with fresh medium containing cytokines. On day 7, non-adherent dendritic cells were collected, and cultured in the presence or absence of 50 μM of modulin peptides or of 1 μg/ml of LPS (Sigma) and incubated for 48 hours at 37° C. and 5% CO2. After this period, the cells were isolated and incubated with anti IAb, CD54 and CD86 antibodies (Pharmingen). In parallel experiments, the dendritic cells were incubated with the indicated stimuli for 16 hours, after which the expression of the messenger RNA for the p40 molecules of IL-12 and of TNF-α was analyzed.
A general note: In flow cytometry, cells or beads pass a laser one at a time.

For assay [2], the system named is splenocytes from C57BL/6 TLR2KO mice. In words: Binding of CFSE labeled peptides to fixed splenocytes from TLR2 KO mice (flow cytometry). Type of assay: cell-based, mouse. The note with it: 20 μM peptide, 30 minutes at 4° C. On the procedure: Mouse splenocytes were purified from C57BL/6 TLR2KO mice after homogenizing the spleen. […] 5×10^5 fixed splenocytes were incubated in the presence of 20 μM CFSE γMod-SIINFEKL, CFSE αMod-SIINFEKL or CFSE-OVA (235-264) control peptide to show the binding specificity.

Assay [3] has as its system CD4, CD8, CD11c, CD19, F480 or GR1(CD117) positive splenocytes. The note with it: total splenocytes, double staining, 20 μM.
Procedure: (§2) Binding assays were carried out using either splenocytes (FIG. 1, panels A B, D, E and G) or bone marrow derived dendritic cells (FIG. 1, panels C and F). The cells were fixed by means of an incubation with a 0.4% glutaraldehyde solution for 15 minutes at 4° C. 5×10^5 fixed cells were incubated in the presence of 20 μM CFSE αMod-[sequence] (FIG. 1, panels A, B and C), or CFSE γMod-[sequence] (FIG. 1, panels D, E, F and G). In some assays, and to study the specificity of CFSE labeled peptide binding, these incubations were carried out in the presence or absence of the unlabeled peptides αMod-[sequence], γMod-[sequence] or [sequence] (100 μM) (panels B and E). Also, we carried out binding assays using the CFSE labeled peptide CFSE-OVA (235-264) as a negative control (FIG. 1, panels A, C, D and F). After 30 minutes of incubation at 4° C., two washings with PBS were carried out and the performed labeling was analyzed by flow cytometry. In some experiments (FIG. 1G), double staining was carried out using anti-CD4, CD8, CD11c, CD19, F480 or GR1(CD117) antibodies labeled with phycoerythrin (Pharmingen) together with the CFSE-γMod-[sequence] peptide. In these cases, the labeling with the specific antibodies was carried out before fixing the cells with glutaraldehyde.
For the next assay, the system named is mouse splenocytes. In words: Binding of CFSE labeled peptides to glutaraldehyde-fixed splenocytes (flow cytometry). The assay is classed as cell-based. The note with it: unlabeled competitor 100 μM.
For assay [4], the system named is T cells from OT-1 transgenic mice. In words: Antigen presentation assay: proliferation of OT-1 T cells (tritiated thymidine). Type of assay: cell-based, mouse. As to conditions: dendritic cells incubated with 10 μM peptide. The method, then:
Dendritic cells derived from bone marrow were cultured in the presence or absence of 10 μM of the indicated peptides (FIG. 3). Forty hours later, the cells were washed and distributed in 96-well plates at different concentrations and incubated in the presence of 10^5 T cells/well obtained from OT-1 transgenic mice (which express a specific T receptor for the SIINFEKL peptide of ovalbumin. Seventy-two hours later, tritiated thymidine was added to the cultures and six hours later the cells were harvested and the incorporated thymidine was analyzed in a scintillation counter (Topcount Packard).

Assay [5] deals with splenocytes pulsed with the SIINFEKL peptide. Put plainly: In vivo killing assay against SIINFEKL-pulsed splenocytes after immunization. As to conditions: for specific cytotoxic activity against SIINFEKL (in vivo killing): 5 nmoles peptide plus 50 μg poly I:C, seven days after immunization; for effect of combination with TLR3 ligand on activation of the cytotoxic response (in vivo killing): 5 nmoles peptide with 50 μg TLR3 ligand (poly I:C); for effect of combination with TLR3 ligand on activation of the cytotoxic response (in vivo killing) / effect of combination with TLR9 ligand on activation of the cytotoxic response (in vivo killing) / cytotoxic T responses against SIINFEKL target cells (in vivo killing): seven days; for effect of combination with TLR9 ligand on activation of the cytotoxic response (in vivo killing): 5 nmoles peptide with 50 μg TLR9 ligand (CpG); for cytotoxic T responses against SIINFEKL target cells (in vivo killing): Example 4, C57BL/6 wild type mice, 5 nmoles peptide with 50 μg poly I:C. The arrangement: species or system C57BL/6 mice. On the procedure:
C57BL6 mice were intravenously immunized intravenously with 5 nmoles of the indicated peptides in combination with 50 μg of the TLR3 ligand poly I:C. In some cases, the peptides were immunized in the presence of TLR2 (peptidoglycan), TLR4 (LPS or the EDA protein) or TLR9 (CpG) ligand. […] On the following day, the mice were sacrificed and the splenocytes were analyzed by flow cytometry to quantify the number of cells with high CFSE labeling with respect to the cells with low CFSE labeling. Thus, the percentage of cell lysis of the cells incubated with the cytotoxic SIINFEKL peptide can be calculated in an experiment called in vivo killing.
C57BL6 wild type mice and knockout mice were immunized for TLR2 with the aim of studying the dependence on TLR2 in the immunostimulating capacity of modulin-derived peptides. Thus, different mice were injected with 5 nmoles of the indicated peptides or with PBS in combination with 50 μg of the TLR3 ligand poly I:C. […] On the following day, the mice were sacrificed and the splenocytes were analyzed by flow cytometry to quantify the number of cells with high CFSE labeling with respect to the cells with low CFSE labeling in the same manner as in Example 3.

The test system of assay [6] is IFNγ-producing cells in response to the SIINFEKL peptide. In words: ELISPOT of IFNγ-producing cells specific for SIINFEKL after immunization. Type of assay: in vivo, C57BL/6 mice. The note with it: for IFNγ-producing cells in response to SIINFEKL (ELISPOT): 5 nmoles peptide plus 50 μg poly I:C, seven days after immunization; for IFN-γ-producing cells specific for SIINFEKL (ELISPOT): Example 4, C57BL/6 wild type mice, 5 nmoles peptide with 50 μg poly I:C, seven days. The method, then:
C57BL6 mice were intravenously immunized intravenously with 5 nmoles of the indicated peptides in combination with 50 μg of the TLR3 ligand poly I:C. In some cases, the peptides were immunized in the presence of TLR2 (peptidoglycan), TLR4 (LPS or the EDA protein) or TLR9 (CpG) ligand. Seven days after the immunization, the mice were intravenously injected with a mixture of 5×10^6 splenocytes, half of which had been previously labeled with a dose of 0.25 μM C and the other half with 2.5 uM CFSE and the SIINFEKL peptide (10 μg/ml). On the following day, the mice were sacrificed and the splenocytes were analyzed by flow cytometry to quantify the number of cells with high CFSE labeling with respect to the cells with low CFSE labeling. Thus, the percentage of cell lysis of the cells incubated with the cytotoxic SIINFEKL peptide can be calculated in an experiment called in vivo killing.
For the analysis of IFNγ-producing cells specific for SIINFEKL and induced in vivo by the immunizations, ELISPOT experiments were carried out using a BD-pharmingen kit (San Diego, Calif.) and according to the instructions of the manufacturer. Briefly, the plates (Multiscreen HTS, Millipore, Bedford, Mass.) incubated overnight with the anti-IFNγ antibody were blocked for 2 hours with HL-1 medium (Biowhittaker, Verviers, Belgium) containing 10% horse serum. Thus, 5×10^5 splenocytes were incubated in triplicate in the absence or in the presence of the antigens at 37° C. and 5% CO2. On the following day, the plates were washed with PBS and incubated with biotinylated anti-IFNγ antibody (2 mg/ml). After two hours, the plates were washed and incubated with a 1/100 dilution of streptavidin-peroxidase. One hour later, the wells were washed and developed using the AEC substrate set (BD-Pharmingen). The colorimetric reaction was stopped with distilled water and the number of spots was quantified using an ELISPOT automatic reader (CTL, Aalen, Germany).
(§1) For the analysis of IFNγ-producing cells in the presence of SIINFEKL and induced in vivo by the immunizations, ELISPOT experiments were carried out using a BD-pharmingen kit (San Diego, Calif.) and according to the instructions of the manufacturer, in the same manner as in Example 3.

Assay [7] deals with EG7OVA tumor cells. In words: Protection against the challenge with EG7OVA tumor cells after immunization. The note with it: 5 nmoles peptide with poly I:C. The assay is classed as in vivo, C57BL/6 mice. The method, then:
Protection against the challenge with EG7 tumor cells expressing the OVA protein C57BL6 mice were subcutaneously immunized with 5 nmol of the indicated peptides in combination with poly I:C. […] In some experiments, mice were first challenged s.c with 5×10^5 cells and when tumors reached 5 mm in diameter they were treated with the indicated peptide. The tumor growth was controlled with a gage. Mice were sacrificed when the tumor reached a volume greater than 4 cm^3. Kaplan-Meier plot of mice survival for each immunogen is depicted.

The test system of assay [8] is EG7OVA tumor cells. Put plainly: Treatment of mice bearing established EG7OVA tumors. Type of assay: in vivo, C57BL/6 mice. The note with it: EG7OVA tumors of 5 mm diameter at treatment, peptide plus poly I:C, p<0.05. The method, then:
Protection against the challenge with EG7 tumor cells expressing the OVA protein C57BL6 mice were subcutaneously immunized with 5 nmol of the indicated peptides in combination with poly I:C. Seven days after the immunization, the mice were subcutaneously injected with 5×10^5 or with 5×10^7 EG7OVA cells. In some experiments, mice were first challenged s.c with 5×10^5 cells and when tumors reached 5 mm in diameter they were treated with the indicated peptide. The tumor growth was controlled with a gage. Mice were sacrificed when the tumor reached a volume greater than 4 cm^3. Kaplan-Meier plot of mice survival for each immunogen is depicted.

The test system of assay [9] is splenocytes pulsed with the SIINFEKL peptide. In words: In vivo killing assay against SIINFEKL-pulsed splenocytes in TLR2 KO mice. The note with it: mice lacking TLR2, 5 nmoles peptide with 50 μg poly I:C, seven days; level similar to wild type. On the procedure:
C57BL6 wild type mice and knockout mice were immunized for TLR2 with the aim of studying the dependence on TLR2 in the immunostimulating capacity of modulin-derived peptides. Thus, different mice were injected with 5 nmoles of the indicated peptides or with PBS in combination with 50 μg of the TLR3 ligand poly I:C. Seven days after the immunization, the mice were intravenously injected with a mixture of 5×10^6 splenocytes, half of which had been previously labeled with a dose of 0.25 μM C and the other half with 2.5 μM CFSE and the SIINFEKL peptide (10 μg/ml). On the following day, the mice were sacrificed and the splenocytes were analyzed by flow cytometry to quantify the number of cells with high CFSE labeling with respect to the cells with low CFSE labeling in the same manner as in Example 3.

For assay [10], the system named is IFNγ-producing cells in response to the SIINFEKL peptide. Put plainly: ELISPOT of IFNγ-producing cells specific for SIINFEKL in TLR2 KO mice. Type of assay: in vivo. The note with it: mice lacking TLR2, 5 nmoles peptide with 50 μg poly I:C, seven days; level similar to wild type. The method, then: as §1

Procedure for mouse splenocytes: as §2

As for “CFSE-MAADIISTIGDLVKWIIDTVNKFKKSIINFEKL [CFSE-γMod-SIINFEKL]”, the “binding of CFSE labeled peptide to bone marrow derived dendritic cells” value in assay [1] is “able to stain bone marrow derived dendritic cells”. Also, the “binding of CFSE labeled peptide to the surface of TLR2 KO splenocytes” value in [2] was “still retained the capacity to bind”. Further, in assay [3], the “percentage of CD4+ cells stained with the CFSE peptide” value is given as “approximately 24.4%”, the “percentage of CD8+ cells stained with the CFSE peptide” value is around 17.8%, the “percentage of CD11c cells stained with the CFSE peptide” value was around 62.1% and the “percentage of CD19 cells stained with the CFSE peptide” value is given as around 52.8%. In assay [3], the “percentage of F418 cells stained with the CFSE peptide” value is listed as around 66.2% and the “percentage of GR1+ cells stained with the CFSE peptide” value was around 27.3%.

As to “MAADIISTIGDLVKWIIDTVNKFKKSIINFEKL [γMod-SIINFEKL]”, the “reduction of the bright fluorescence of CFSE γMod-SIINFEKL on splenocytes by unlabeled peptide” value in the assay with mouse splenocytes (20 μM CFSE γMod-SIINFEKL) is “reduced the bright fluorescence”. Also, the “proliferation of OT-1 T lymphocytes stimulated by peptide-incubated dendritic cells” value in assay [4] is “significantly better than OVA (235-264) peptide”. In assay [5], the “specific cytotoxic activity against SIINFEKL (in vivo killing)” value is given as “strong cytotoxic responses”, the “effect of combination with TLR3 ligand on activation of the cytotoxic response (in vivo killing)” value is “synergistic effect”, the “effect of combination with TLR9 ligand on activation of the cytotoxic response (in vivo killing)” value is given as “synergistic effect” and the “cytotoxic T responses against SIINFEKL target cells (in vivo killing)” value (“cytotoxic T responses” for short) is “capable of inducing cytotoxic T responses”. Moreover, in assay [6], the “IFNγ-producing cells in response to SIINFEKL (ELISPOT)” value is on record as “production of IFNγ” and the “IFN-γ-producing cells specific for SIINFEKL (ELISPOT)” value (“IFN-γ-producing cells specific” for short) was “is induced”. Further, the “protection from tumor growth after EG7OVA challenge” value with EG7OVA tumor cells [7] (7×10^5 EG7OVA cells s.c. seven days after immunization (FIG. 5B)) is listed as “protected the mice from tumor growth”. Besides, in the assay on EG7OVA tumor cells [8], the “mice rejecting the established tumor” value is recorded as “about 38%”. In addition, in assay [9], the “cytotoxic T responses” value is given as “also observed”. Moreover, in assay [10], the “IFN-γ-producing cells specific” value is given as “also observed”.

Regarding “MADVIAKIVEIVKGLIDQFTQKSIINFEKL [αMod-SIINFEKL]”, the “inhibition of the CFSE αMod-SIINFEKL signal on splenocytes by unlabeled peptide” value with mouse splenocytes (20 μM CFSE αMod-SIINFEKL) was “significantly inhibited”. Besides, in assay [4], the “proliferation of OT-1 T lymphocytes stimulated by peptide-incubated dendritic cells” value was “significantly better than OVA (235-264) peptide”. Besides, in assay [5], the “specific cytotoxic activity against SIINFEKL (in vivo killing)” value is on record as “strong cytotoxic responses”, the “effect of combination with TLR3 ligand on activation of the cytotoxic response (in vivo killing)” value is “synergistic effect”, the “effect of combination with TLR9 ligand on activation of the cytotoxic response (in vivo killing)” value is on record as “synergistic effect” and the “cytotoxic T responses” value was “capable of inducing cytotoxic T responses”. In addition, in assay [6], the “IFNγ-producing cells in response to SIINFEKL (ELISPOT)” value is “production of IFNγ” and the “IFN-γ-producing cells specific” value is reported as “is induced”. Also, in the assay on EG7OVA tumor cells [7] (5×10^5 EG7OVA cells s.c. seven days after immunization (FIG. 5A)), the “protection from tumor growth after EG7OVA challenge” value is reported as “protected the mice from tumor growth”. Also, in assay [9], the “cytotoxic T responses” value is reported as “also observed”. The “IFN-γ-producing cells specific” value in assay [10] is “also observed”.
